Data: the supplement of paper PMC5844555

How the values were obtained:
Assay in all cases: 3' UTR reporter interaction score (median-centred robust z-score of log2 firefly/Renilla activity); higher = less repression of the 3' UTR reporter
Conditions in all cases: HEK293T; 48 h
[1] = tested on: TP53
Method in brief: (§1)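 Using DharmaFECT Duo, HEK293T cells (10,000/well, 96-well plates) were co-transfected with 2.5 pmol miRNA mimic, 100 ng firefly luc2P reporter containing the gene's 3' UTR and 20 ng Renilla pRL-TK control, and dual-luciferase activity was read 48 h later. The interaction score is the log firefly/Renilla ratio as a per-plate robust z-score (median, median absolute deviation), median-centred per miRNA, averaged over at least two independent screens; lower, more negative values indicate interaction.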

[2] = tested on: MYT1L
Method in brief: as §1

[3] = tested on: ZEB2
Method in brief: as §1

[4] = tested on: BRCA2
Method in brief: as §1

[5] = tested on: EZH2
Method in brief: as §1

[6] = tested on: PHOX2B
Method in brief: as §1

[7] = tested on: MYCN
Method in brief: as §1

[8] = tested on: PHF6
Method in brief: as §1

[9] = tested on: MYC
Method in brief: as §1

[10] = tested on: FBXW7
Method in brief: as §1

[11] = tested on: HRAS
Method in brief: as §1

[12] = tested on: MYB
Method in brief: as §1

[13] = tested on: RB1
Method in brief: as §1

[14] = tested on: NOTCH1
Method in brief: as §1

Sequence	3' UTR reporter interaction score [1]	3' UTR reporter interaction score [2]	3' UTR reporter interaction score [3]	3' UTR reporter interaction score [4]	3' UTR reporter interaction score [5]	3' UTR reporter interaction score [6]	3' UTR reporter interaction score [7]	3' UTR reporter interaction score [8]	3' UTR reporter interaction score [9]	3' UTR reporter interaction score [10]	3' UTR reporter interaction score [11]	3' UTR reporter interaction score [12]	3' UTR reporter interaction score [13]	3' UTR reporter interaction score [14]
UGAGGUAGUAGGUUGUAUGGUU	-0.643	0.588	0.734	0.199	-3.88	-0.072	-4.05	0.487	-2.26	0.348	0.339	0.761		
GGCAAGAUGCUGGCAUAGCUG	-0.71	-0.16	1.14		-0.113	1.14	0.322	-1.44	0.017	1.19	0.647	0.765	0.334	-0.293
AUGUAUAAAUGUAUACACAC	1.38		-1.04	0.174	0.905	0.0154	-0.0355	-0.348	-0.0623	0.329	0.0947	-0.578	-0.33	-1.28
UAAAGUGCUUAUAGUGCAGGUAG	-0.181	-0.414	0.262	1.9	-0.364		-0.791	1.96	-0.207	-0.632	0.379	-0.124	0.204	0.917
UUUGGCACUAGCACAUUUUUGC	-0.115	-0.203	0.198	0.322	0.814	0.531	0.288	-0.863	0.306	-1.69	0.722		0.451	0.319
UCUGCUCAUACCCCAUGGUUUCU	0.807	-0.849	-0.101	1.96	0.623		-0.385	1.4	0.772	-0.521	-0.642	-1.65	1.62	-0.475
GGUCCAGAGGGGAGAUAGG	0.186	0.466	-0.0605	-0.441	-0.024	-0.69	-0.926	0.39	-0.219	-0.103		-0.834	-0.274	0.349
UAAUACUGCCUGGUAAUGAUGAC	-0.665	1.12	-3.47		0.31	-1.14	-0.158	2	1.05	-0.751	-0.0979	-2.25	0.622	-0.616
CAUUAUUACUUUUGGUACGCG	0.0619	-0.409	0.0582	-0.00235	0.119	0.437		-0.223	-0.4	0.0986	0.225	0.454	0.974	-0.00418
AGAUCAGAAGGUGAUUGUGGCU	0.622		-0.441	0.117	0.782	-0.105	-0.0131	1.45	-0.231	1.15	0.462	-2.02	-1	0.74
UGAGGUAGGAGGUUGUAUAGU	0.0915	-0.34	-0.156	0.75	-3.52	0.238	-3.52	-0.232	-2.75	0.127	0.649	0.624		-0.642
UUUGUGACCUGGUCCACUAACC	-1.6	-0.568	0.152	-0.491	0.358	0	0.167	0.815	-1.92	-0.879		0.254	0.728	0.65
UACGUCAUCGUUGUCAUCGUCA	0.00955		-2.2	0.347	-0.223	0.31	-1.02	-0.457	-0.111	0.256	0.167	-0.203	0.229	-0.131
AAAACGGUGAGAUUUUGUUUU	-0.39	-0.225	0.0197	-0.776		1.39	0.148	-0.604	0.0587	0.403	-0.201	0.737	-1.03	-1.23
UCUCACACAGAAAUCGCACCCGUC	-0.669	-0.241	0.106	1		0.123	-1.33	0.199	-3.89	-0.236	-1.52	0.485	-0.308	0.283
AAAGUGCUUCCUUUUAGAGGC	0.32	-0.527	0.738	-0.921	-0.74	0.798	0.692	-0.00693	-0.277	0.555	-0.194	-0.24	0.31	
CAAGAACCUCAGUUGCUUUUGU	0.405	-0.132	-1.03	-0.995	0.928	-0.954		-0.741	0.13	-0.0454	1.03	0.335		-0.974
UGUCUUACUCCCUCAGGCACAU	0.565	-2.22	-0.976	0.202	-0.24	0.667	-1.1	2.68	-0.519	1.02	-1.06	-0.229	0.999	
UUGUGUCAAUAUGCGAUGAUGU	-0.384	-0.212	0.639	-0.078	0.77	-1.6	-0.328	0.901	0.588	-1.37	1.07	-0.649	0.229	
AAAGUGCUUCUCUUUGGUGGGUU	0.499	-0.567	0.955	0.0116	-1.56	1.31		-0.0534	-0.26	0.685	0.266	-0.782	0.799	0.392
UGAUUGUAGCCUUUUGGAGUAGA	-0.415	-0.331	-1.2	1.26	0.191	-0.496	0.938	0.465	-1.19	-0.741	1.52	1.56	-0.751	

Sequence	3' UTR reporter interaction score [1]	3' UTR reporter interaction score [2]	3' UTR reporter interaction score [3]	3' UTR reporter interaction score [4]	3' UTR reporter interaction score [5]	3' UTR reporter interaction score [6]	3' UTR reporter interaction score [7]	3' UTR reporter interaction score [8]	3' UTR reporter interaction score [9]	3' UTR reporter interaction score [10]	3' UTR reporter interaction score [11]	3' UTR reporter interaction score [12]	3' UTR reporter interaction score [13]	3' UTR reporter interaction score [14]
GGCAGGUUCUCACCCUCUCUAGG	-0.0357	-0.84	-0.268	-0.0484	0.162	-1.4	0.446	-0.606	0.583	-1.49	0.517			0.309
UUGAAACAAUCUCUACUGAAC	-0.126	0.3	0.917	-0.93	0.163	0.857		-1.21	0.402	1.05	-0.263	-0.218	-1.43	0.836
UUCUCCAAAAGGGAGCACUUUC	-0.24	2.01	1.08	-0.958	-0.381		0.94	-0.0417	-0.329	-0.759	0.596	-0.361	1.31	-0.166
UAUUGCACAUUACUAAGUUGC	-0.165	0.0117	-0.436	0.064	-1.18		1.19	0.521	0.647	-3.29	-0.69		0.119	-0.36
AAAGUGCUGUUCGUGCAGGUAG	0.803	-1.47	-0.0741	-0.619		1.63	-0.359	0.684	-0.0736	0.872	-0.586	-1.38	0.0538	0.83
ACUUUAACAUGGAAGUGCUUUCU	0.121	0.13	-0.795	0.253	0.735	-0.178	-0.0564	-0.0712	0.48		-0.0142	-0.31		-0.363
UGUAACAGCAACUCCAUGUGGA	-0.515	-0.161	0.401	0.232	-1.3	-2.2	0.331	1.94	-1.28	-1.43		0.809	-0.726	-0.0483
AACAUUCAUUGCUGUCGGUGGG	0.443	-0.567	0.114	0.08	0.0847	1.46		0.159	0.124	0.243	-0.854	0.0638	0.0638	-0.249
UAGCAGCACAUAAUGGUUUGUG	-0.405	-2.1	1.33	-0.161		0.742	-0.121	1	1.03	-3.3	1.55	-1.32	-0.091	0.0154
UAGUAGACCGUAUAGCGUACG	0.138	1.28	2.18	-0.367	-0.435		0.359	0.821	-0.638	-0.321	-0.49	1.44	0.459	1.8
AAACCGUUACCAUUACUGAGUUU	0.812	1.68	0.377	0.378	0.71	-1.13	-0.445	0.358	-0.972	-0.543	-0.683		-0.236	-0.371
GGCUAGCAACAGCGCUUACCU	0.432	0.317	0.537	-0.392		0.192	0.326	-0.414	-0.989	0.164	-0.311	-0.249	0.235	-0.508
AAUUGCACGGUAUCCAUCUGUA	-1.12		-3.51	0.52	-0.862	-1.97	0.653	0.891	1.4	-6.72	0.777	0.44	1.19	-0.751
CACGCUCAUGCACACACCCAC	1.21	0.0877	1.26	0.0228	0.315	-1.58	-0.371	-3.04	0.38	-1.61			-0.279	0.398
UGUAAACAUCCUCGACUGGAAG	-0.35	0.672	-1.69	-0.114	0.0496		-0.46	-2.11	-0.476	0.336	0.246	0.498	0.575	
UAGGUAGUUUCCUGUUGUUGG	0.913	-0.34	0.639	-0.449	0.324	0.179		-0.855	-0.416	-0.0724	-0.324	0.0231	-0.415	0.244
CAGUGCAAUAGUAUUGUCAAAGC	-0.369	-1.35	-0.0807	0.327	-0.946	-0.134	0.282	1.54	-0.162	0.383		-1.09	1.9	1.2
CUCCUGACUCCAGGUCCUGUGU	0.342		-1.51	0.612	-0.51	-0.0385	-0.0476	-4.57	1.1	-0.332	0.32	0.427	0.546	0.232
AAUAUAACACAGAUGGCCUGU	0.139	-0.827	-0.625	-0.646	0.634	0.795			0.886	0.647	0.155	-0.573	-1.07	0.989
UAAGGCACCCUUCUGAGUAGA	-0.0578	1.04	0.807	0.5	-2.69	1.39	-0.435	-0.903	-0.593	0.601	0.999		-1.28	-0.104
